Source: publication PMC3394710, “Insight into Temperature Dependence of GTPase Activity in Human Guanylate Binding Protein-1” (PLoS ONE, 2012)
Positions count from the first letter of the chain named.

Key:
Test in all cases: thermal denaturation, tryptophan fluorescence
[1] = biological target: T1, human guanylate binding protein-1 (hGBP1, wild type whGBP1) (Homo sapiens, UniProt P32455); details: 0.5 µM protein, 20 mM Tris-HCl pH 7.5, 100 mM KCl, 5 mM MgCl2, Tm of free protein in the 2nd table, row 6
T1 construct: gene GBP1; purified as in earlier work
T1 sequence (P32455 1-592): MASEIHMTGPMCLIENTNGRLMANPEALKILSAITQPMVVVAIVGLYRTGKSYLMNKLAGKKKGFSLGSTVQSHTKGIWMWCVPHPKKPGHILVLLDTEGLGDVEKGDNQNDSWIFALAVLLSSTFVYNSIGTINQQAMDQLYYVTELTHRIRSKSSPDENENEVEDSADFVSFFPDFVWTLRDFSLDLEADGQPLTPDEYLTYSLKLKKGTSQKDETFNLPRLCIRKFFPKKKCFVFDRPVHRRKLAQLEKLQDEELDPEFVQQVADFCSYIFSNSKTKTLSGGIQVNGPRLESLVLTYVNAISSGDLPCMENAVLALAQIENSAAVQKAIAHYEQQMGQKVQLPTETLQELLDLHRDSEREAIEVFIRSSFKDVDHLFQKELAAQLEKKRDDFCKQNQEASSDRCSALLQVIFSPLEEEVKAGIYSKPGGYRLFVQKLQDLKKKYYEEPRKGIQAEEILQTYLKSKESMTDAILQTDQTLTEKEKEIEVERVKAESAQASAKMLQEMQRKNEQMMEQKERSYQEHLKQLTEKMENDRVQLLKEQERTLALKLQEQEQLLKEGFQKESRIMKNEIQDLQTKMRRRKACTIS
Description: thermal denaturation, tryptophan fluorescence on human guanylate binding protein-1 (hGBP1, wild type whGBP1)

[2] = biological target: T2, human guanylate binding protein-1 (hGBP1, wild type whGBP1) (Homo sapiens, UniProt P32455, S157A); details: 37 °C; 5 mM MgCl2, 100 mM KCl, pH 7.5; ΔCp assumed as in wild type
T2 construct: gene GBP1; purified as in earlier work
T2 sequence (P32455 1-592 S157A): T1 sequence (P32455 1-592) with S157A

[3] = biological target: T3, human guanylate binding protein-1 (hGBP1, wild type whGBP1) (Homo sapiens, UniProt P32455, E313A); details: 37 °C; 5 mM MgCl2, 100 mM KCl, pH 7.5; ΔCp assumed as in wild type
T3 construct: gene GBP1; purified as in earlier work
T3 sequence (P32455 1-592 E313A): T1 sequence (P32455 1-592) with E313A

Nc1nc2c(ncn2[C@@H]2O[C@H](COP(=O)(O)OP(=O)(O)O)[C@@H](O)[C@H]2O)c(=O)[nH]1 [GDP]
Heat-induced unfolding / T m / (K) ([1]; 500 µM GDP): 319.9 ± 0.4 K

Nc1nc2c(ncn2[C@@H]2O[C@H](COP(=O)(O)OP(=O)(O)NP(=O)(O)O)[C@@H](O)[C@H]2O)c(=O)[nH]1 [GppNHp]
Heat-induced unfolding / T m / (K) ([1]; 100 µM GppNHp): 325.2 ± 0.2 K
difference in ΔG D between analogue free and bound protein [2]: 0.9 kcal/mol
difference in ΔG D between analogue free and bound protein [3]: 2.4 kcal/mol
